Paper PMC12415202, “Specificities of chemosensory receptors in the human gut microbiota” (Proceedings of the National Academy of Sciences of the …, 2025)

Experiments:
Assay in all cases: ITC
[1] = target: T1, K1 LBD
T1 construct: source species and locus only in SI

[2] = target: T2, C1 LBD
T2 construct: source species and locus only in SI
Source text: ITC on C1 LBD | The binding of L-lactate to the K1 and C1 LBDs

[3] = target: T3, B9 LBD
T3 construct: source species and locus only in SI
Source text: ITC on B9 LBD | The binding of L-threonine to the B9 LBD

[4] = target: T4, B6 LBD; set-up: species or system Catenibacterium mitsuokai
T4 construct: locus only in SI
Source text: ITC on B6 LBD | the binding of indole to the B6 LBD were confirmed by isothermal titration calorimetry

[5] = target: T5, D8 LBD; settings: membrane-distal module
T5 construct: D8-dm = residues 33-179, D8-pm = residues 153-280; source species and locus only in SI

[6] = target: T6, J6 LBD
T6 construct: source species and locus only in SI
Source text: ITC on J6 LBD | ethylamine and methylamine to the J6 LBD was confirmed by ITC

C[C@@H](O)C(=O)O [D-lactate]
Kd [1]: 66.1 ± 10.7 µM

C[C@H](O)C(=O)O [L-lactate]
Kd [1]: 16 ± 0.56 µM | Kd [2]: 26.8 ± 0.91 µM

C[C@@H](O)[C@H](N)C(=O)O [L-threonine]
Kd [3]: 1.3 ± 0.2 µM

c1ccc2[nH]ccc2c1 [indole]
Kd [4]: 35.6 ± 7.02 µM

C=C(CC(=O)O)C(=O)O [itaconate]
Kd [5]: 9.6 ± 0.9 µM

O=C(O)/C=C\C(=O)O [maleate]
Kd [5]: 7.7 ± 0.41 µM

CN [methylamine]
Kd [6]: 242 ± 22 µM

O=C(O)CCC(=O)O [succinate]
Kd [5]: 1.7 ± 0.11 µM
